Experiments:
Type in all cases: in vivo
Septoria tritici = experiment: Test A: wheat leaf blotch, preventive spray on wheat seedlings; conditions: 100 = 100% disease control, 0 = no control relative to controls; for pest or weed control at 10 ppm / pest or weed control at 50 ppm: Zymoseptoria tritici, read-out: Test A disease control rating (wheat leaf blotch); for pest or weed control at 50 ppm / Test A disease control rating (wheat leaf blotch): 50 ppm
Summary of the method: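 Preventive test: seedlings sprayed to run-off one day before Septoria tritici spore inoculation, with ppm doses in acetone/water containing 250 ppm PEG400. After 48 h at 24 °C in saturated air and 17 days at 20 °C, plants were scored 0–100 for disease control versus untreated controls.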

[1] = system: Puccinia recondita f. sp. tritici; experiment: Test B: wheat leaf rust, preventive spray on wheat seedlings; conditions: 100 = 100% disease control, 0 = no control relative to controls; for pest or weed control at 10 ppm / pest or weed control at 50 ppm: read-out: Test B disease control rating (wheat leaf rust); for pest or weed control at 50 ppm / Test B disease control rating (wheat leaf rust): 50 ppm
Summary of the method: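 Wheat seedlings got a run-off spray (ppm, acetone/water 50/50, 250 ppm PEG400) and one day later a spore inoculum. After 24 h at 20° C. in saturated air and 7 days at 20° C., disease was scored as % control relative to controls (100 = full control).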

[2] = system: Blumeria graminis f. sp. tritici; experiment: Test C: wheat powdery mildew, preventive spray on wheat seedlings; conditions: rated after 8 days, 100 = 100% disease control, 0 = no control; for pest or weed control at 10 ppm / pest or weed control at 50 ppm: Blumeria graminis, 192 h, read-out: Test C disease control rating (wheat powdery mildew); for pest or weed control at 50 ppm / Test C disease control rating (wheat powdery mildew): 50 ppm
Summary of the method: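 Wheat seedlings got a run-off spray of test suspension (ppm in acetone/water 50/50, 250 ppm PEG400, acetone 3% of volume), then spore-dust inoculation with wheat powdery mildew one day later. After 8 days' growth-chamber incubation at 20° C, disease control scored visually on a 0–100 scale versus untreated controls.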

Phakopsora pachyrhizi = experiment: Test D: Asian soybean rust, preventive spray on soybean seedlings; conditions: 100 = 100% disease control, 0 = no control; for pest or weed control at 10 ppm / pest or weed control at 50 ppm: Phakopsora pachyrhizi, read-out: Test D disease control rating (Asian soybean rust); for pest or weed control at 50 ppm / Test D disease control rating (Asian soybean rust): 50 ppm
Summary of the method: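 Soybean seedlings sprayed to run-off with compound suspension (ppm, in 50/50 acetone/water with 250 ppm PEG400), inoculated next day with P. pachyrhizi spores, held 24 h saturated at 22°C then 8 days at 22°C. Visual rating 0-100% disease control relative to controls.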

Botrytis cinerea = experiment: Test E: tomato Botrytis, preventive spray on tomato seedlings; conditions: 100 = 100% disease control, 0 = no control; for pest or weed control at 10 ppm / pest or weed control at 50 ppm: Botrytis cinerea, read-out: Test E disease control rating (tomato Botrytis); for pest or weed control at 50 ppm / Test E disease control rating (tomato Botrytis): 50 ppm
Summary of the method: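 Preventive test: spore inoculation one day after run-off spraying of compound suspension (3% acetone, acetone/water 50/50, 250 ppm PEG400). Incubation 20 °C saturated humidity for 48 h, followed by 3 days at 24 °C growth chamber; disease control scored visually, 100 = full control.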

Alternaria solani = experiment: Test F: tomato early blight, preventive spray on tomato seedlings; conditions: 100 = 100% disease control, 0 = no control; for pest or weed control at 10 ppm / pest or weed control at 50 ppm: Alternaria solani, read-out: Test F disease control rating (tomato early blight); for pest or weed control at 50 ppm / Test F disease control rating (tomato early blight): 50 ppm
Summary of the method: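 Preventive test: one day after seedlings were sprayed to run-off with ppm-level suspensions (acetone/water 50/50, 250 ppm PEG400), A. solani spore inoculation followed. Incubation was 48 h at 27° C in saturated air plus 3 days at 20° C; disease control was scored visually versus controls (100 = full control).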

Cc1cc(F)c(Nc2c(-c3ccc(F)cc3Cl)c(C)nn2C)c([N+](=O)[O-])c1 [Compound 93, 4-(2-chloro-4-fluorophenyl)-N-(2-fluoro-4-methyl-6-nitrophenyl)-1,3-dimethyl-1H-pyrazol-5-amine]
pest or weed control at 10 ppm (Septoria tritici): 99%
pest or weed control at 50 ppm (Septoria tritici): 100%
pest or weed control at 10 ppm [1]: 100%
pest or weed control at 50 ppm [1]: 100%
pest or weed control at 10 ppm [2]: 97%
pest or weed control at 50 ppm [2]: 99%
pest or weed control at 10 ppm (Phakopsora pachyrhizi): 87%
pest or weed control at 50 ppm (Phakopsora pachyrhizi): 100%
pest or weed control at 10 ppm (Botrytis cinerea): 99%
pest or weed control at 50 ppm (Botrytis cinerea): 100%
pest or weed control at 10 ppm (Alternaria solani): 99%
pest or weed control at 50 ppm (Alternaria solani): 99%

Cc1nn(C)c(Nc2ccc(OC(F)(F)F)cc2[N+](=O)[O-])c1-c1ccc(F)cc1Cl [Compound 94]
Test A disease control rating (wheat leaf blotch) (Septoria tritici): 73%
Test B disease control rating (wheat leaf rust) [1]: 0%
Test C disease control rating (wheat powdery mildew) [2]: 72%
Test D disease control rating (Asian soybean rust) (Phakopsora pachyrhizi): 73%
Test E disease control rating (tomato Botrytis) (Botrytis cinerea): 0%
Test F disease control rating (tomato early blight) (Alternaria solani): 9%

CCc1nn(C)c(Nc2c(F)cc(F)cc2[N+](=O)[O-])c1-c1ccc(F)cc1Cl [Compound 95]
Test A disease control rating (wheat leaf blotch) (Septoria tritici): 100%
Test B disease control rating (wheat leaf rust) [1]: 100%
Test C disease control rating (wheat powdery mildew) [2]: 100%
Test D disease control rating (Asian soybean rust) (Phakopsora pachyrhizi): 84%
Test E disease control rating (tomato Botrytis) (Botrytis cinerea): 99%
Test F disease control rating (tomato early blight) (Alternaria solani): 99%

Cc1nn(C)c(Nc2c(Cl)cc(Cl)cc2[N+](=O)[O-])c1-c1c(F)cccc1F [Compound 96]
Test A disease control rating (wheat leaf blotch) (Septoria tritici): 100%
Test B disease control rating (wheat leaf rust) [1]: 95%
Test C disease control rating (wheat powdery mildew) [2]: 0%
Test D disease control rating (Asian soybean rust) (Phakopsora pachyrhizi): 0%
Test E disease control rating (tomato Botrytis) (Botrytis cinerea): 80%
Test F disease control rating (tomato early blight) (Alternaria solani): 0%

COc1cc(F)c(Nc2c(-c3c(F)cccc3F)c(C)nn2C)c([N+](=O)[O-])c1 [Compound 97]
Test A disease control rating (wheat leaf blotch) (Septoria tritici): 100%
Test B disease control rating (wheat leaf rust) [1]: 100%
Test C disease control rating (wheat powdery mildew) [2]: 100%
Test D disease control rating (Asian soybean rust) (Phakopsora pachyrhizi): 96%
Test E disease control rating (tomato Botrytis) (Botrytis cinerea): 100%
Test F disease control rating (tomato early blight) (Alternaria solani): 99%

Cc1nn(C)c(Nc2c(F)cc(Cl)cc2[N+](=O)[O-])c1-c1c(F)cccc1F [Compound 98]
Test A disease control rating (wheat leaf blotch) (Septoria tritici): 100%
Test B disease control rating (wheat leaf rust) [1]: 97%
Test C disease control rating (wheat powdery mildew) [2]: 93%
Test D disease control rating (Asian soybean rust) (Phakopsora pachyrhizi): 0%
Test E disease control rating (tomato Botrytis) (Botrytis cinerea): 99%
Test F disease control rating (tomato early blight) (Alternaria solani): 98%

Cc1nn(C)c(Nc2cccc(Cl)c2[N+](=O)[O-])c1-c1c(F)cccc1F [Compound 99]
Test A disease control rating (wheat leaf blotch) (Septoria tritici): 99%
Test B disease control rating (wheat leaf rust) [1]: 0%
Test C disease control rating (wheat powdery mildew) [2]: 0%
Test D disease control rating (Asian soybean rust) (Phakopsora pachyrhizi): 0%
Test E disease control rating (tomato Botrytis) (Botrytis cinerea): 24%
Test F disease control rating (tomato early blight) (Alternaria solani): 0%

Cc1cc(Cl)c(Nc2c(-c3c(F)cccc3F)c(C)nn2C)c([N+](=O)[O-])c1 [Compound 100]
Test A disease control rating (wheat leaf blotch) (Septoria tritici): 100%
Test B disease control rating (wheat leaf rust) [1]: 89%
Test C disease control rating (wheat powdery mildew) [2]: 21%
Test D disease control rating (Asian soybean rust) (Phakopsora pachyrhizi): 0%
Test E disease control rating (tomato Botrytis) (Botrytis cinerea): 26%
Test F disease control rating (tomato early blight) (Alternaria solani): 0%

Cc1nn(C)c(Nc2c(Cl)cc(Cl)cc2[N+](=O)[O-])c1-c1ccc(F)cc1F [Compound 101]
Test A disease control rating (wheat leaf blotch) (Septoria tritici): 100%
Test B disease control rating (wheat leaf rust) [1]: 99%
Test C disease control rating (wheat powdery mildew) [2]: 89%
Test D disease control rating (Asian soybean rust) (Phakopsora pachyrhizi): 44%
Test E disease control rating (tomato Botrytis) (Botrytis cinerea): 99%
Test F disease control rating (tomato early blight) (Alternaria solani): 0%

Cc1nn(C)c(Nc2c(F)cc(Cl)cc2[N+](=O)[O-])c1-c1ccc(F)cc1F [Compound 102]
Test A disease control rating (wheat leaf blotch) (Septoria tritici): 100%
Test B disease control rating (wheat leaf rust) [1]: 100%
Test C disease control rating (wheat powdery mildew) [2]: 100%
Test D disease control rating (Asian soybean rust) (Phakopsora pachyrhizi): 48%
Test E disease control rating (tomato Botrytis) (Botrytis cinerea): 99%
Test F disease control rating (tomato early blight) (Alternaria solani): 99%

CCOc1ccc(Nc2c(-c3ccc(F)cc3Cl)c(C)nn2C)c([N+](=O)[O-])c1 [Compound 103]
Test A disease control rating (wheat leaf blotch) (Septoria tritici): 97%
Test B disease control rating (wheat leaf rust) [1]: 80%
Test C disease control rating (wheat powdery mildew) [2]: 50%
Test D disease control rating (Asian soybean rust) (Phakopsora pachyrhizi): 0%
Test E disease control rating (tomato Botrytis) (Botrytis cinerea): 83%
Test F disease control rating (tomato early blight) (Alternaria solani): 0%

Cc1nn(C)c(Nc2ccc(OC(C)C)cc2[N+](=O)[O-])c1-c1ccc(F)cc1Cl [Compound 104]
Test A disease control rating (wheat leaf blotch) (Septoria tritici): 60%
Test B disease control rating (wheat leaf rust) [1]: 0%
Test C disease control rating (wheat powdery mildew) [2]: 72%
Test D disease control rating (Asian soybean rust) (Phakopsora pachyrhizi): 0%
Test E disease control rating (tomato Botrytis) (Botrytis cinerea): 0%
Test F disease control rating (tomato early blight) (Alternaria solani): 0%

Cc1ccc(Nc2c(-c3c(F)cccc3F)c(C)nn2C)c([N+](=O)[O-])c1 [Compound 105]
Test A disease control rating (wheat leaf blotch) (Septoria tritici): 99%
Test B disease control rating (wheat leaf rust) [1]: 74%
Test C disease control rating (wheat powdery mildew) [2]: 86%
Test D disease control rating (Asian soybean rust) (Phakopsora pachyrhizi): 0%
Test E disease control rating (tomato Botrytis) (Botrytis cinerea): 73%
Test F disease control rating (tomato early blight) (Alternaria solani): 0%

Cc1nn(C)c(Nc2c(Cl)cccc2[N+](=O)[O-])c1-c1ccc(F)cc1Cl [Compound 108]
Test A disease control rating (wheat leaf blotch) (Septoria tritici): 100%
Test B disease control rating (wheat leaf rust) [1]: 100%
Test C disease control rating (wheat powdery mildew) [2]: 97%
Test D disease control rating (Asian soybean rust) (Phakopsora pachyrhizi): 86%
Test E disease control rating (tomato Botrytis) (Botrytis cinerea): 100%
Test F disease control rating (tomato early blight) (Alternaria solani): 77%

Cc1nn(C)c(Nc2c(F)cc(F)cc2[N+](=O)[O-])c1-c1ccc(F)cc1Cl [Compound 109]
Test A disease control rating (wheat leaf blotch) (Septoria tritici): 100%
Test B disease control rating (wheat leaf rust) [1]: 100%
Test C disease control rating (wheat powdery mildew) [2]: 100%
Test D disease control rating (Asian soybean rust) (Phakopsora pachyrhizi): 93%
Test E disease control rating (tomato Botrytis) (Botrytis cinerea): 100%
Test F disease control rating (tomato early blight) (Alternaria solani): 99%

Cc1nn(C)c(Nc2c(Br)cccc2[N+](=O)[O-])c1-c1ccc(F)cc1Cl [Compound 110]
Test A disease control rating (wheat leaf blotch) (Septoria tritici): 100%
Test B disease control rating (wheat leaf rust) [1]: 98%
Test C disease control rating (wheat powdery mildew) [2]: 56%
Test D disease control rating (Asian soybean rust) (Phakopsora pachyrhizi): 73%
Test E disease control rating (tomato Botrytis) (Botrytis cinerea): 99%
Test F disease control rating (tomato early blight) (Alternaria solani): 0%

Cc1nn(C)c(Nc2ccc(F)cc2[N+](=O)[O-])c1-c1ccc(F)cc1Cl [Compound 111, 4-(2-chloro-4-fluorophenyl)-N-(4-fluoro-2-nitrophenyl)-1,3-dimethyl-1H-pyrazol-5-amine]
pest or weed control at 50 ppm (Septoria tritici): 100%
pest or weed control at 50 ppm [1]: 99%
pest or weed control at 50 ppm [2]: 99%
pest or weed control at 50 ppm (Phakopsora pachyrhizi): 0%
pest or weed control at 50 ppm (Botrytis cinerea): 100%
pest or weed control at 50 ppm (Alternaria solani): 93%

Cc1nn(C)c(Nc2c(F)cccc2[N+](=O)[O-])c1-c1ccc(F)cc1Cl [Compound 112, 4-(2-chloro-4-fluorophenyl)-N-(2-fluoro-6-nitrophenyl)-1,3-dimethyl-1H-pyrazol-5-amine]
pest or weed control at 10 ppm (Septoria tritici): 72%
pest or weed control at 50 ppm (Septoria tritici): 88%
pest or weed control at 10 ppm [1]: 100%
pest or weed control at 50 ppm [1]: 100%
pest or weed control at 10 ppm [2]: 98%
pest or weed control at 50 ppm [2]: 100%
pest or weed control at 10 ppm (Phakopsora pachyrhizi): 52%
pest or weed control at 50 ppm (Phakopsora pachyrhizi): 99%
pest or weed control at 10 ppm (Botrytis cinerea): 100%
pest or weed control at 50 ppm (Botrytis cinerea): 100%
pest or weed control at 10 ppm (Alternaria solani): 98%
pest or weed control at 50 ppm (Alternaria solani): 100%

— patent US12398107B2, “Fungicidal nitroanilino substituted pyrazoles” (FMC Corporation, priority 2018, dated 2025)
